# ChEMBL document CHEMBL1156494, “Stelliferin riboside, a triterpene monosaccharide isolated from the Fijian sponge Geodia globostellifera” (J Nat Prod, 2001)
# Key:
# [1] = test system: A2780; assay: Cytotoxicity against human A2780 cells; type: functional, cell-based
# [2] = test system: K562; assay: Cytotoxicity against human K562 cells; type: functional, cell-based
SMILES,IC50 [1],IC50 [2]
CC(=O)O[C@@H]1CC[C@@]2(C)[C@@H](CC[C@]3(C)/C(=C(C)/C=C/C=C(\C)C(CC=C(C)C)O[C@@H]4OC[C@@H](O)[C@@H](O)[C@H]4O)C(=O)C[C@@H]23)C1(C)C (stereo partly specified) [STELLIFERIN RIBOSIDE],38.1 µg/mL,> 50 µg/mL
CC(/C=C/C=C(\C)c1ccc(C)c(=O)o1)=C1/C(=O)C[C@H]2[C@@]3(C)CCC(=O)C(C)(C)[C@@H]3CC[C@]12C [STELLETTIN B],0.0051 µg/mL,0.93 µg/mL
C\C(=C/C=C/C(C)=C1/C(=O)C[C@H]2[C@@]3(C)CCC(=O)C(C)(C)[C@@H]3CC[C@]12C)c1ccc(C)c(=O)o1 [STELLETIN A],1.52 µg/mL,3.82 µg/mL
